Data taken from BigSolDB 2.1.

NC(=O)CC[C@H](N)C(=O)O
solubility (mole fraction)
Settings	283.15 K	288.15 K	293.15 K	298.15 K	303.15 K	308.15 K	313.15 K	318.15 K	323.15 K
in 2-butanone	0.00015	0.00017	0.0002	0.000237	0.000271	0.000301	0.000338	0.000373	0.00041
in acetonitrile	3.44e-05	6.77e-05	0.000104	0.000138	0.000164	0.000192	0.000225	0.000254	0.000283
in ethanol	0.000273	0.000304	0.000337	0.000372	0.000408	0.000447	0.000494	0.000522	0.000584
in ethyl acetate	2.94e-05	5.21e-05	0.000138	0.000218	0.000293	0.000362	0.000452	0.00054	0.000653
in isobutanol	5.11e-05	0.000112	0.000163	0.000254	0.000348	0.000442	0.000556	0.000662	0.000798
in methanol	9.5e-05	0.000101	0.000114	0.000134	0.000164	0.000205	0.00025	0.000286	0.000347
in n-butanol	0.000184	0.00023	0.000291	0.00035	0.0004	0.000458	0.000522	0.000574	0.000635
in n-hexane	0.000129	0.000196	0.000263	0.000346	0.000425	0.000494	0.000554	0.000621	0.000681
in n-pentanol	8.57e-05	0.000109	0.000137	0.000163	0.000245	0.000335	0.000448	0.000556	0.000654
in n-propanol	8.13e-05	0.000115	0.000156	0.000189	0.000227	0.000266	0.000321	0.000375	0.000434
in sec-butanol	5.51e-05	0.000106	0.00017	0.000231	0.000281	0.000353	0.00042	0.000501	0.000593
in water	0.00356	0.00409	0.00471	0.00533	0.00595	0.00682	0.00811	0.0097	0.0121
